From patent US20100137239A1, “GEMCITABINE COMBINATION THERAPY” (GLOUCESTER PHARMACEUTICALS, priority 2006, published 2010) come the findings set out here.

SMILES strings stand for the structures. Values joined by “and” are separate entries in the source; they are usually repeats but may differ in a detail not shown here. Equal entries are not always repeated.

A short description of data set [1]: BxPC-3 study: animal weight and drug toxicity. The text has this:
(§1) Model Information—Female nude mice (nu/nu) between 5 and 6 weeks of age weighing approximately 20 grams were obtained from Harlan, Inc. (Madison, Wis.). PANC-1, obtained from the ATCC, is a pancreas tumor cell line originating from a person^(1-2). BxPC-3, obtained from the American Type Culture Collection (ATCC), is a pancreas tumor cell line originating from a person^(3-4). PANC-1 Study: Animals were implanted subcutaneously (SC) by trocar with fragments of PANC-1 harvested from SC growing tumors in nude mice hosts. When tumors grew to approximately 135 cubic millimeters (mm^3) in size (17 days following implantation, animals were pair-matched by tumor size into treatment and control groups; each treatment group contained nine mice. BxPC-3 Study: Animals were implanted subcutaneously (SC) by trocar with fragments of BxPC-3 harvested from SC growing tumors in nude mice hosts. When tumors grew to approximately 85 cubic millimeters (mm^3) in size (19 days following implantation), animals were pair-matched by tumor size into treatment and control groups; each treatment group contained nine mice. Animals in both studies were ear-tagged and followed individually throughout the experiment.
(§2) Study Design and Dosing—Initial doses were administered on Day 1 following pair-matching; both experiments were carried out as tumor growth inhibition (TGT) studies. Animals were dosed intravenously (IV) via tail vein with FK228 once every four days for three treatments (Q4Dx3) or by intraperitoneal (IP) injection with gemcitabine once every three days for four treatments (Q3Dx4), either alone or in combination, at the doses listed below (Table 1). To serve as a negative control, FK228 vehicle (2% ethanol, 8% propylene glycol, 90% 0.9% saline) was injected on a Q4Dx3 schedule.
(§3) Animal Weights—Individual and group mean weights ±SD and percent weight change through Day 25 (PANC-1) or Day 29 (BxPC-3) were recorded twice weekly until study completion beginning Day 1. Final group mean weights ±SD and group nadir values are reported; weight data from individual animals experiencing technical or drug-related deaths was censored from final group calculations.
(§4) Moribundity/Mortality—Animals were observed twice weekly for general moribundity and daily for mortality. Animal deaths were assessed as drug-related or technical based on factors including gross observation and weight loss; reported animal death information includes type, number, and day of death for each group.
(§5) Statistics—Statistical analyses were carried out between treated and control groups comparing final weight, percent weight change, and tumor growth inhibition (Appendix III). For these groups, a two-tailed One-Way Analysis of Variance (ANOVA) followed by the Dunnett multiple comparisons test was employed. All analyses are performed using GraphPad Prism® software (version 4.0). Weight and tumor data from individual animals experiencing technical or drug-related deaths was censored from analysis.

Data set [2] can be described thus: PANC-1 study: animal weight and drug toxicity.
From the text: as §1, §2, §3, §4, §5

In data set [3] the test system is c-Myc. In words: Immunoblot of c-Myc in PANC-1 xenograft tumors after treatment. In kind it is in vivo, human. The settings on record: FK228 5 mg/kg Q4Dx3; gemcitabine 80 mg/kg Q3Dx4; tumors at study completion; actin-normalized, vs controls. The method, then: (§6) Abstract: To examine activity and mechanism of FK228, antitumor efficacy was tested in PANC-1 pancreatic adenocarcinoma model representing transformed Ras, either as a single agent or in combination with gemcitabine. Following PANC-1 study completion, tumor and sera were obtained from: • the vehicle control; • FK228 dosed at 5 mg/kg once every four days for three treatments (Q4Dx3); • Gemcitabine at 80 mg/kg (Q3Dx4); and • the drug combination. Expression of c-Myc, acetylated histones 3 and 4, and p21^waf1 was compared between control and FK228 groups by immunoblotting and was quantified following actin normalization. Serum levels of putative tumor products b-FGF and MMP-2 were quantified by human-specific ELISA. […]
(§7) Tissue Biomarkers: Tumor levels of acetylated histone-4, histone-4, c-Myc, p21waf and β-actin were quantified by immunoblotting as described. […] The chemiluminescence signal was captured by autoradiography, quantified by densitometry and expressed as a ratio of actin in each sample lane. For each biomarker, means and standard errors were calculated in each treatment group. […]
(§8) Expression of c-Myc, acetylated histones 3 and 4, and p21^waf1 was compared between control and FK228 groups by immunoblotting and was quantified following actin normalization. Serum levels of putative tumor products b-FGF and MMP-2 were quantified by human-specific ELISA. […]

Data set [4] relates to acetylated histone 3. In words: Immunoblot of acetylated histone 3 in PANC-1 xenograft tumors. In kind it is in vivo, human. Conditions: FK228 5 mg/kg Q4Dx3; gemcitabine 80 mg/kg Q3Dx4; tumors at study completion; vs controls. The protocol: as §6, §7, §8
Setting [5] is: FK228 2.5 mg/kg IV Q4Dx3, 2.5 mg/kg.
The mark [6] stands for this setting: FK228 5 mg/kg IV Q4Dx3, 5 mg/kg.

Consider `C/C=C1\NC(=O)[C@H]2CSSCC/C=C/[C@H](CC(=O)N[C@H](C(C)C)C(=O)N2)OC(=O)[C@H](C(C)C)NC1=O` [FK228, romidepsin], for which the results for the “FINAL WEIGHT (DAY 29) % CHANGE” value in data set [1] (FK228 2.5 mg/kg IV Q4Dx3) and in data set [1] (FK228 5 mg/kg IV Q4Dx3) were “+10%” and “+7%”, respectively. In addition, the “WEIGHT NADIR % CHANGE” value in data set [1] (FK228 2.5 mg/kg IV Q4Dx3) is listed as −5%; in data set [1] (FK228 5 mg/kg IV Q4Dx3) it was −15%; in data set [2] (FK228 2.5 mg/kg IV Q4Dx3), −9%; in data set [2] (FK228 5 mg/kg IV Q4Dx3) it was −12%. For the same compound, the “WEIGHT NADIR DAY” value in data set [1] (FK228 2.5 mg/kg IV Q4Dx3), in data set [1] (FK228 5 mg/kg IV Q4Dx3), in data set [2] (FK228 2.5 mg/kg IV Q4Dx3) and in data set [2] (FK228 5 mg/kg IV Q4Dx3) was 11 throughout. The “DRUG DEATHS TOTAL” value in data set [1] (setting [5]) was 0/9 and 0; in data set [1] (setting [6]) it was 0/9 and 0; in data set [2] (setting [5]) it was 0/9 and 0; in data set [2] (setting [6]) it was 0/9 and 0. The “FINAL WEIGHT (DAY 29) MEAN(G) ± SD” value in data set [1] (setting [5]) turned out to be 25±2 G; in data set [1] (setting [6]), 24±1 G. Also, the “FINAL WEIGHT (DAY 25) % CHANGE” value in data set [2] (FK228 2.5 mg/kg IV Q4Dx3) was “+8%”; in data set [2] (FK228 5 mg/kg IV Q4Dx3) it was “+9%”. Also, the “FINAL WEIGHT (DAY 25) MEAN(G) ± SD” value was found to be 21 ± 2 G in data set [2] (setting [5]) and 25±2 G in data set [2] (setting [6]). Besides, the “inhibition of c-Myc expression” value in data set [3] came out at 50%. In data set [4], the “acetylation of histone 3” value was “not affected”.

Take `Nc1ccn([C@@H]2O[C@H](CO)[C@@H](O)C2(F)F)c(=O)n1` [Gemcitabine, gemcitabine]: in data set [1] (Gemcitabine 40 mg/kg IP Q3Dx4), the “DRUG DEATHS TOTAL” value is 0/9 and 0; the “FINAL WEIGHT (DAY 29) % CHANGE” value was “+9%”; the “weight loss (nadir)” value is “No weight loss”. In addition, in data set [1] (Gemcitabine 80 mg/kg IP Q3Dx4), the “DRUG DEATHS TOTAL” value was 0/9 and 0; the “FINAL WEIGHT (DAY 29) % CHANGE” value is recorded as “+1%”; the “FINAL WEIGHT (DAY 29) MEAN(G) ± SD” value is 22±4 G and 22 + 4 G; the “WEIGHT NADIR % CHANGE” value is recorded as −9%. Moreover, the “WEIGHT NADIR DAY” value in data set [1] (Gemcitabine 80 mg/kg IP Q3Dx4) turned out to be 11. In data set [2] (Gemcitabine 40 mg/kg IP Q3Dx4), the “DRUG DEATHS TOTAL” value was 0/9 and 0; the “FINAL WEIGHT (DAY 25) % CHANGE” value was “+7%”; the “FINAL WEIGHT (DAY 25) MEAN(G) ± SD” value came to 24±1 G; the “WEIGHT NADIR % CHANGE” value is −2%. Also, the “WEIGHT NADIR DAY” value in data set [2] (Gemcitabine 40 mg/kg IP Q3Dx4) came out at 11. Besides, in data set [2] (Gemcitabine 80 mg/kg IP Q3Dx4), the “DRUG DEATHS TOTAL” value is 0/9 and 0; the “FINAL WEIGHT (DAY 25) % CHANGE” value is “+12%”; the “FINAL WEIGHT (DAY 25) MEAN(G) ± SD” value was 26±3 G; the “WEIGHT NADIR % CHANGE” value is −3%. In addition, the “WEIGHT NADIR DAY” value in data set [2] (Gemcitabine 80 mg/kg IP Q3Dx4) was found to be 11. In addition, the “inhibition of c-Myc expression” value in data set [3] came out at 50%. In addition, in data set [4], the “acetylation of histone 3” value is “significantly inhibited”.
